Patent US20220296547A1, “METHODS AND COMPOSITIONS FOR TREATMENT OF DISEASES” (Tranexamic Technologies, LLC, priority 2020, published 2022)
“Also recorded” adds a separate entry of the source.

What was measured:
[1] = test system: MDA-MB 468 cells; assay: MTT assay with tranexamic acid derivatives; assay type: cell-based, human; conditions: MDA-MB 468, 72 h, increasing concentrations
Protocol: MDA-MB 468 cells were plated at 6,250 cells per well in a 96-well plate and incubated overnight at 37° C. […] Cell viability was evaluated using an MTT assay.

[2] = test system: BT474, MDA-MB-468, B16, KPPC, HMEC and HaCaT cell lines; assay: DNA synthesis (tritiated thymidine incorporation), cell line panel; assay type: cell-based; conditions: 24 h treatment, 0 to 8%, DNA synthesis during a 3 h window
[3] = test system: broad array of cancer and epithelial cell lines; assay: MTT cell viability assays with increasing concentrations (FIG. 2, FIG. 5); assay type: cell-based
[4] = test system: MCF10A cells overexpressing the MYC oncogene; assay: MTT assay, MYC overexpressing versus vector control cells; assay type: cell-based, human
Description: (§1) The N-Myc-related gene c-Myc, or MYC, is frequently overexpressed in many human cancers, including breast cancer.

[5] = test system: STAT3; assay: STAT3 phosphorylation; assay type: cell-based
Description: as §1

[6] = molecular target: T1, plasmin (Homo sapiens, UniProt P00747); conditions: cited from earlier work
Target sequence in this assay (P00747 581-810 limits assumed, species assumed): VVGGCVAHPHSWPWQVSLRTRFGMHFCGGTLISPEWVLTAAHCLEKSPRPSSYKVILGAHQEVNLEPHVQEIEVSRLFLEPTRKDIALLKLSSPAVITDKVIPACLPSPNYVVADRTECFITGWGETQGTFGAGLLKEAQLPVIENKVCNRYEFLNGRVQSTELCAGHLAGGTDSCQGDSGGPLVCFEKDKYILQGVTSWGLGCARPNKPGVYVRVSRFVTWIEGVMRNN
Target sequence in this assay (P00747 97-580 partner limits assumed, species assumed): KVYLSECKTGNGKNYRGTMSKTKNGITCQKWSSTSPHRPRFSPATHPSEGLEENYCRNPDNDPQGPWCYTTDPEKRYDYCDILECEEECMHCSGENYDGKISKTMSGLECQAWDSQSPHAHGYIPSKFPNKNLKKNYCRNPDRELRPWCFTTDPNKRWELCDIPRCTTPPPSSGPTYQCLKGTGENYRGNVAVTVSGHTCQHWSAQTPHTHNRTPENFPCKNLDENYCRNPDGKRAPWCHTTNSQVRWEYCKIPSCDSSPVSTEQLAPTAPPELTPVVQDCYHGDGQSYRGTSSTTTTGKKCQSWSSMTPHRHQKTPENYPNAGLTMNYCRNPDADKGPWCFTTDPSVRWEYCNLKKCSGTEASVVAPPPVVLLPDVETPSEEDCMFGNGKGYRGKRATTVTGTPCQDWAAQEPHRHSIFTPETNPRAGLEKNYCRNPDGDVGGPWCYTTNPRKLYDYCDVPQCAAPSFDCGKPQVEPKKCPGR

[7] = test system: cell cycle; assay: Cell cycle study; assay type: cell-based
[8] = test system: histone H3; assay: Acetylation of histone H3 on lysine 27 and lysine 9; assay type: cell-based
[9] = test system: histone lysine acetylation; assay: Histone lysine acetylation in BT474 cells; assay type: cell-based
[10] = test system: human keratinocytes (HaCaT); assay: DNA synthesis (tritiated thymidine incorporation); assay type: cell-based; conditions: HaCaT non-transformed epithelial line; 24 h
[11] = test system: MDA-MB-468 breast cancer cells; assay: Markers of the mitotic phase (cyclin B, MPM2); assay type: cell-based, human; conditions: 1%
[12] = test system: BT474 breast cancer cells; assay: DNA synthesis (tritiated thymidine incorporation); assay type: cell-based; conditions: 24 h treatment, 0 to 8%
[13] = test system: human mammary epithelia cells (HMEC); assay: DNA synthesis (tritiated thymidine incorporation); assay type: cell-based; conditions: HMEC non-transformed epithelial line; 24 h
[14] = test system: PAI-1; assay: PAI-1 levels in MDA-MB-231 breast cancer cell extracts; assay type: cell-based; conditions: FIG. 6
Description: (§2) None of the treatments altered the overall pattern of protein tyrosine phosphorylation. […] Cleavage of CDCP1 may play a role in driving tumor invasion given the preferential binding of the cleaved form of CDCP1 with cell adhesion molecules such as beta1-integrin and E-cadherin.

[15] = test system: CDCP1 cleavage; assay: CDCP1 cleavage in MDA-MB-231 breast cancer cell extracts; assay type: cell-based
Description: as §2

[16] = test system: HCI-012/LVM2/LR10 drug-resistant, HER2+, metastatic breast cancer; assay: Breast tumor growth in patient-derived model; assay type: in vivo, mice; conditions: orally, once daily, 375 mg/kg
[17] = test system: programmed death-ligand 1 (PD-L1); assay: PD-L1 expression (FIG. 18); assay type: cell-based; conditions: high concentration (2%)
[18] = molecular target: p300 acetyltransferase enzyme (Homo sapiens, UniProt Q09472); assay: p300 acetyltransferase enzyme assays (immunoblot H3K9Ac / H3K27Ac); conditions: two sets of enzyme assays
Protocol: This is measured by immunoblotting with antibodies that specifically recognize histone 3 (H3) acetylated (Ac) on lysine (K) number 9 or 27.

[19] = test system: BT474 breast cancer cells; assay: Markers of the mitotic phase (cyclin B, MPM2); assay type: cell-based; conditions: 1%
[20] = test system: AKT in MYC overexpressing MCF10A cells; assay: AKT activity (phospho-AKT substrate antibody); assay type: cell-based, human
Description: as §1

[21] = test system: S6K1 (p70s6k); assay: Ribosomal S6 protein phosphorylation; assay type: cell-based
Description: as §1

[22] = test system: SH-SY5Y neuroblastoma cells; assay: MTT cell viability assay; assay type: cell-based
[23] = test system: non-melanoma skin cancer; conditions: mice, long-term UV irradiation; cited from earlier work
[24] = test system: protein lysine acetylation in a second breast cancer cell line; assay: Protein lysine acetylation over time (FIG. 10); assay type: cell-based; conditions: as early as 4 h
[25] = test system: lysine acetylation of cellular proteins; assay: Lysine acetylation of cellular proteins and histones (FIG. 8); assay type: cell-based
[26] = test system: epidermal growth factor receptor (EGFR); assay: EGFR expression (FIG. 8); assay type: cell-based
[27] = molecular target: T1, plasmin; conditions: accepted value from studies; cited from earlier work
Target sequence in this assay (P00747 20-810 limits assumed): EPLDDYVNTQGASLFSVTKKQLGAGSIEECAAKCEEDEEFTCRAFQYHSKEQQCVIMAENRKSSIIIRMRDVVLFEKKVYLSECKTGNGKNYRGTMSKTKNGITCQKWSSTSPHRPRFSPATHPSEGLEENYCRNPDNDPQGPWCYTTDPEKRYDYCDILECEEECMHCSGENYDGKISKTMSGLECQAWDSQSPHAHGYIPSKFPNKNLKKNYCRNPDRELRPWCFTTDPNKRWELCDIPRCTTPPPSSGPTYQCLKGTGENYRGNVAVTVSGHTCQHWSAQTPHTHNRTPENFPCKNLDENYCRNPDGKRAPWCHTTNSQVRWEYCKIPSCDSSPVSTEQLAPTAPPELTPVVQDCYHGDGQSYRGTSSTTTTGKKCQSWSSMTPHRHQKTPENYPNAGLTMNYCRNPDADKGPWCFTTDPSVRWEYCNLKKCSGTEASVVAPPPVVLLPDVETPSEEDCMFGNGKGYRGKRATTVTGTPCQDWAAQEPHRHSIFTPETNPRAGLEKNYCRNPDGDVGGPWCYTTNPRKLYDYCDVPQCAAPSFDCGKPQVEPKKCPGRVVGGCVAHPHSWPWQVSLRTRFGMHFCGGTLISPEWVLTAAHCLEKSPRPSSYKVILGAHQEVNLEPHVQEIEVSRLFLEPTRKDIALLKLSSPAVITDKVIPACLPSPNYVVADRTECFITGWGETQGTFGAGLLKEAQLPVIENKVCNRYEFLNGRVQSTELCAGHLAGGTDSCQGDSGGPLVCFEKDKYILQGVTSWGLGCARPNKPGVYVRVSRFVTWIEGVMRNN

[28] = test system: HCI-001 breast cancer cells; assay: MTT cell viability assay; assay type: cell-based
[29] = test system: AKT in MDA-MB-468 human breast cancer cell line; assay: AKT activity (phospho-AKT substrate antibody); assay type: cell-based
Description: as §1

[30] = intravenous doses of 80-100 mg/kg and above, e.g. during heart surgery; cited from earlier work
[31] = test system: MDA-MB-468 cells; assay: MTT cell viability assay (FIG. 2); assay type: cell-based, human; conditions: MDA-MB-468, known to overexpress MYC

Sequence of p300 acetyltransferase enzyme (Q09472 whole entry): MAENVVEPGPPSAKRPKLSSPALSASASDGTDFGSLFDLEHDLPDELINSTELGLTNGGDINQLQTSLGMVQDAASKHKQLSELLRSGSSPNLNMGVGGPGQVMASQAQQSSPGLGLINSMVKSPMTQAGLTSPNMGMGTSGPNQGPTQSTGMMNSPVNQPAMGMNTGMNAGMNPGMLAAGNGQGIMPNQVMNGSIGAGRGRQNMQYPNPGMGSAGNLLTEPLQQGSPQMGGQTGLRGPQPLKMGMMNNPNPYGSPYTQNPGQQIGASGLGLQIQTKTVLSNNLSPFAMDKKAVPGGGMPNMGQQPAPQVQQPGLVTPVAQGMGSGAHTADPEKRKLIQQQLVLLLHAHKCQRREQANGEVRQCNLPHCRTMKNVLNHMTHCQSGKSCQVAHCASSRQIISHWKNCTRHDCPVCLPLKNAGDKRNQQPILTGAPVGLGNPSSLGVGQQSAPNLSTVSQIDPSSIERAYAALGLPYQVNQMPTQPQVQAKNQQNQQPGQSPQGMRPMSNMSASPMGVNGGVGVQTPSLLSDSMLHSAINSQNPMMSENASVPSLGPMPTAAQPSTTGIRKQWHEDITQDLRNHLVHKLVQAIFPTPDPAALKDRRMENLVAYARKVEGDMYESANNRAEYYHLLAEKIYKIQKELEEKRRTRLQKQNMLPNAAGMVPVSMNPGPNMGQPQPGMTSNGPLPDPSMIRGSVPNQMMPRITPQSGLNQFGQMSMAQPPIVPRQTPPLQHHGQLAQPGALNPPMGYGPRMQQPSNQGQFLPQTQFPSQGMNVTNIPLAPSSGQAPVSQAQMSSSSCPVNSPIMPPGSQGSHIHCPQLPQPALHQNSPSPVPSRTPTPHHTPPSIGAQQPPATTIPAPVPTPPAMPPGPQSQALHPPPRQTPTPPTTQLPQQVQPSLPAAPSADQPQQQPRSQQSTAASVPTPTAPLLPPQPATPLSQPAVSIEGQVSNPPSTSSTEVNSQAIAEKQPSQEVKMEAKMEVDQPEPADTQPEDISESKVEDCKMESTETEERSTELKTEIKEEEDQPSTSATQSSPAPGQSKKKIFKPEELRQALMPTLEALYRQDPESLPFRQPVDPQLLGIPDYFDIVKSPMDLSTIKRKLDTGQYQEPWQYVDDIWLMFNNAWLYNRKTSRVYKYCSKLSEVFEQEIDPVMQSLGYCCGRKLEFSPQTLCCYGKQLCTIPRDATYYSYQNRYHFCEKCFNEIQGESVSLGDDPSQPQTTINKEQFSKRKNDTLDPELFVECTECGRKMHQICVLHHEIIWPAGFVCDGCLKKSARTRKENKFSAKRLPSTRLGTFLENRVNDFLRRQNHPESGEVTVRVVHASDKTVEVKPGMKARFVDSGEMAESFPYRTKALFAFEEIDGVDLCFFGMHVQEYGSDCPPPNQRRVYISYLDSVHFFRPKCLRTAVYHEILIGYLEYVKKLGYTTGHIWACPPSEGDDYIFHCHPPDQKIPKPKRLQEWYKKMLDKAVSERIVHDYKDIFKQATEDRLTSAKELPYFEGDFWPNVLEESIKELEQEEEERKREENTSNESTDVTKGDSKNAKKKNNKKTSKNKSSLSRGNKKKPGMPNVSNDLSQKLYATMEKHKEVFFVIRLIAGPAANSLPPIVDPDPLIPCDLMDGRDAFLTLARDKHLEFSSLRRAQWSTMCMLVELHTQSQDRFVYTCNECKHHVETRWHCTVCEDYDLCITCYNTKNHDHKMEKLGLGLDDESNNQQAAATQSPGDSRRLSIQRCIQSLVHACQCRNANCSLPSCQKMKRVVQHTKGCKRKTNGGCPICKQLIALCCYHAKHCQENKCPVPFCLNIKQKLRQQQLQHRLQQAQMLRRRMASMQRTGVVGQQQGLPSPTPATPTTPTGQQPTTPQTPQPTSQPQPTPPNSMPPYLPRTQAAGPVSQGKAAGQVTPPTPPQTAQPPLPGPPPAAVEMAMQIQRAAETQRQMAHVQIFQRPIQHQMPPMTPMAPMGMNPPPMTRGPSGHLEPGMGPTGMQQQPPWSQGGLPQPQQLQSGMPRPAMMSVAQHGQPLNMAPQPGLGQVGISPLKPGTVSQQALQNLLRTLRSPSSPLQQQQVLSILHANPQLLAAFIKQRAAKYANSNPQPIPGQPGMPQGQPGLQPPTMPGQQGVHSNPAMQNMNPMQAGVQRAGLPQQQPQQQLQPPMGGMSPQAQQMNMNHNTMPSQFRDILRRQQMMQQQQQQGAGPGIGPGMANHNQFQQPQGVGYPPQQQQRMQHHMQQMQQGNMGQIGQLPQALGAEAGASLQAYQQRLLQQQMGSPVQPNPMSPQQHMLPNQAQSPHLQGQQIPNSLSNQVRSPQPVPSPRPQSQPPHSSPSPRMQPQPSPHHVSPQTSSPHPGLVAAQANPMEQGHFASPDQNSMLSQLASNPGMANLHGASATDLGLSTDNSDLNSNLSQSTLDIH

For NC[C@H]1CC[C@H](C(=O)O)CC1 [tranexamic acid], the “cell viability (MTT)” value [1] was “reduced MDA-MB 468 cell viability”, the “DNA synthesis / cell proliferation across cell lines” value [2] was “suppresses the proliferation; also recorded: affected all the cell lines examined” and the “cell viability (MTT) across cell lines” value [3] was “all lines are inhibited; also recorded: dose dependently suppresses the viability”. The “sensitivity of MYC overexpressing cells versus unaltered control cells (MTT)” value [4] was “significant increase in tranexamic acid sensitivity; also recorded: significantly more sensitive”, the “STAT3 phosphorylation on Serine 727” value [5] was “not Serine 727” and the “STAT3 phosphorylation on Tyrosine 705” value [5] was “decreases STAT3 phosphorylation on Tyrosine 705”. For the same compound, the plasmin protease activity [6] was “directly inhibits plasmin protease activity”, the cell cycle arrest [7] was “causes G2/M-phase cell cycle arrest” and the “acetylation of histone H3 on lysine 9” value ([8]; carried out by other enzymes) was “not on lysine 9”. For the same compound, the “acetylation of histone H3 on lysine 27” value ([8]; carried out by p300 and CBP) was “blocks acetylation”, the “effect on histone acetylation in presence of the histone deacetylase inhibitor SAHA” value [9] was “did not overcome the effects of the histone deacetylase inhibitor SAHA” and the histone lysine acetylation ([9]; particularly at higher concentrations) was “suppressed histone lysine acetylation”. The “proliferation (DNA synthesis)” value [10] was “affects the proliferation”, the “markers of the mitotic phase of the cell cycle (cyclin B, MPM2)” value [11] was “elevates markers of the mitotic phase” and the “sensitivity of DNA synthesis compared to other cell lines” value [12] was “most sensitive to low concentrations”. For the same compound, the “proliferation (DNA synthesis)” value [13] was “affects the proliferation”, the “PAI-1 levels / expression” value [14] was “without increasing PAI-1 levels” and the “CDCP1 cleavage at lowest concentration” value ([15]; 0.5%) was “good inhibition of CDCP1 cleavage”. The CDCP1 cleavage ([15]; MDA-MB-231 breast cancer cell extracts) was “blocks CDCP1 cleavage”, the “tumor growth versus vehicle (water)” value [16] was “suppresses tumor growth more effectively than a vehicle” and the PD-L1 expression [17] was “did not”. For the same compound, the p300 acetyltransferase activity [18] was “inhibits p300 activity”, the “markers of the mitotic phase of the cell cycle (cyclin B, MPM2)” value [19] was “elevates markers of the mitotic phase” and the AKT activity [20] was “suppressed AKT activity”. For the same compound, the p70s6k inhibition [21] was “inhibits p70s6k”, the “phosphorylation of the ribosomal S6 protein” value [21] was “reduced phosphorylation of the ribosomal S6 protein” and the “cell viability (MTT)” value ([22]; SH-SY5Y neuroblastoma cells) was “decreased viability”. For the same compound, the “sensitivity compared to other cell lines tested (MTT)” value ([22]; SH-SY5Y, N-Myc amplified / MYC overexpressed) was “most sensitive”, the “non-melanoma skin cancer development” value [23] was “reduced” and the “plasma MMP-9 and IL-6, skin plasmin, CC chemokine 2, macrophages, STAT3, cyclin D and VEGF-A” value [23] was “suppresses increases”. For the same compound, the protein lysine acetylation [24] was “reduces protein lysine acetylation”, the “histone acetylation compared with vehicle treatment” value [25] was “suppressed histone acetylation” and the “levels of lysine acetylation of cellular proteins” value [25] was “reduces the levels of lysine acetylation”. The “expression of EGFR” value ([26]; FIG. 8) was “decreases expression”, the EGFR downregulation ([26]; FIG. 8, as worded) was “did not increase” and the “blood concentration required to inhibit formation of plasmin and provide antifibrinolysis” value [27] was 10 to 20 µg/mL. For the same compound, the “cell viability (MTT)” value [28] was “decreased viability”, the AKT activity [29] was “suppressed AKT activity” and the seizure risk [30] was “risk of seizure”. For the same compound, the “sensitivity compared to other cell lines tested (MTT)” value [31] was “most sensitive”.
